{"source": "patent US6914045B2", "about": "“Glycopeptide antibiotics” (Wyeth Holdings Corporation, priority 2001, dated 2005)", "key": {"[1]": {"test_system": "Enterococcus sp.", "test": "in vitro antibacterial evaluation, MIC by broth dilution", "assay_type": "cell-based", "conditions": "broth dilution, 18 hours at 35° C.", "in_short": "(§1)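 MIC = lowest antibiotic concentration preventing visible growth; inoculum 5×10^5 CFU/mL; drug range 64-0.06 μg/mL; Muller-Hinton II […]; NCCLS M7-A2 guidance.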"}, "[2]": {"test_system": "Escherichia coli", "test": "in vitro antibacterial evaluation, MIC by broth dilution", "assay_type": "cell-based", "conditions": "18 hours at 35° C.", "in_short": "as §1"}, "[3]": {"test_system": "Staphylococcus sp.", "test": "in vitro antibacterial evaluation, MIC by broth dilution", "assay_type": "cell-based", "conditions": "broth dilution, 18 hours at 35° C.", "in_short": "as §1"}, "[4]": {"test_system": "Streptococcus sp.", "test": "in vitro antibacterial evaluation, MIC by broth dilution", "assay_type": "cell-based", "conditions": "broth dilution, 18 hours at 35° C.", "in_short": "as §1"}, "[5]": {"test_system": "Enterococcus faecalis (GC 6189)", "test": "acute lethal infection in mice", "assay_type": "in vivo", "conditions": "female CD-1 mice, intraperitoneal challenge, intravenous 30 min. after infection, 7 day survival", "in_short": "(§2)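 Mice (female CD-1, 20+/−2 gm) receive bacteria ip in broth or hog gastric mucin, then test agent iv after 30 min. Median effective dose is calculated from 7 day survival pooled across 3 tests.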"}, "[6]": {"test_system": "Staphylococcus aureus-SMITH (GC 4543)", "test": "acute lethal infection in mice", "assay_type": "in vivo", "conditions": "acute lethal infection, female CD-1 mice, intraperitoneal challenge, intravenous 30 min. after infection, 7 day survival", "in_short": "as §2"}}, "data": [{"smiles": "CC(c1ccccc1)C1NC(=O)CNC(=O)C(CO)NC(=O)C(C(O)C2CNC(=N)N2C2OC(CO)C(O)C(O)C2O)NC(=O)C(C(O)C2CNC(=N)N2)NC(=O)C(Cc2ccc(OC3OC(CO)C(OC4OC5COC(C6CC=CCC6)OC5C(O)C4O)C(O)C3O)cc2)NC1=O", "note": "(stereo not drawn) [Example 115, Cyclo[glycyl-β-methylphenylalanyl-O-[4-O-[4,6-O-(cyclohex-3-en-1-ylmethylene)hexopyranosyl]hexopyranosyl]tyrosyl-3-(2-iminoimidazolidin-4-yl)seryl-3-(3-hexopyranosyl-2-iminoimidazolidin-4-yl)serylseryl]]", "values": [{"measurement": "MIC Enterococcus avium (GC 4558)", "setting": "[1]; Enterococcus avium (GC 4558)", "result": 2, "unit": "µg/mL"}, {"measurement": "MIC Enterococcus faecalis (ATCC 29212)", "setting": "[1]; Enterococcus faecalis (ATCC 29212)", "result": 2, "unit": "µg/mL"}, {"measurement": "MIC Enterococcus faecalis (GC 2242)", "setting": "[1]; Enterococcus faecalis (GC 2242)", "result": 2, "unit": "µg/mL"}, {"measurement": "MIC Enterococcus faecalis (GC 2691)", "setting": "[1]; Enterococcus faecalis (GC 2691)", "result": 2, "unit": "µg/mL"}, {"measurement": "MIC Enterococcus faecalis (GC 3059)", "setting": "[1]; Enterococcus faecalis (GC 3059)", "result": 2, "unit": "µg/mL"}, {"measurement": "MIC Enterococcus faecalis (GC 4552)", "setting": "[1]; Enterococcus faecalis (GC 4552)", "result": 2, "unit": "µg/mL"}, {"measurement": "MIC Enterococcus faecalis (GC 4553)", "setting": "[1]; Enterococcus faecalis (GC 4553)", "result": 4, "unit": "µg/mL"}, {"measurement": "MIC Enterococcus faecalis (GC 4554)", "setting": "[1]; Enterococcus faecalis (GC 4554)", "result": 2, "unit": "µg/mL"}, {"measurement": "MIC Enterococcus faecalis (GC 6189)", "setting": "[1]; Enterococcus faecalis (GC 6189)", "result": 2, "unit": "µg/mL"}, {"measurement": "MIC Enterococcus faecium (GC 2243)", "setting": "[1]; Enterococcus faecium (GC 2243)", "result": 2, "unit": "µg/mL"}, {"measurement": "MIC Enterococcus faecium (GC 4556)", "setting": "[1]; Enterococcus faecium (GC 4556)", "result": 2, "unit": "µg/mL"}, {"measurement": "MIC Enterococcus faecium (GC 4557)", "setting": "[1]; Enterococcus faecium (GC 4557)", "result": 2, "unit": "µg/mL"}, {"measurement": "MIC Enterococcus faecalis (ATCC 29212)", "setting": "[1]; strain ATCC 29212", "result": 2, "unit": "µg/mL"}, {"measurement": "MIC Enterococcus faecalis (GC 2242)", "setting": "[1]; strain GC 2242", "result": 2, "unit": "µg/mL"}, {"measurement": "MIC Enterococcus faecium (GC 2243)", "setting": "[1]; strain GC 2243", "result": 2, "unit": "µg/mL"}, {"measurement": "MIC Enterococcus faecalis (GC 2691)", "setting": "[1]; strain GC 2691", "result": 2, "unit": "µg/mL"}, {"measurement": "MIC Enterococcus faecalis (GC 3059)", "setting": "[1]; strain GC 3059", "result": 2, "unit": "µg/mL"}, {"measurement": "MIC Enterococcus faecalis (GC 4552)", "setting": "[1]; strain GC 4552", "result": 2, "unit": "µg/mL"}, {"measurement": "MIC Enterococcus faecalis (GC 4553)", "setting": "[1]; strain GC 4553", "result": 4, "unit": "µg/mL"}, {"measurement": "MIC Enterococcus faecalis (GC 4554)", "setting": "[1]; strain GC 4554", "result": 2, "unit": "µg/mL"}, {"measurement": "MIC Enterococcus faecium (GC 4556)", "setting": "[1]; strain GC 4556", "result": 2, "unit": "µg/mL"}, {"measurement": "MIC Enterococcus faecium (GC 4557)", "setting": "[1]; strain GC 4557", "result": 2, "unit": "µg/mL"}, {"measurement": "MIC Enterococcus avium (GC 4558)", "setting": "[1]; strain GC 4558", "result": 2, "unit": "µg/mL"}, {"measurement": "MIC Enterococcus faecalis (GC 6189)", "setting": "[1]; strain GC 6189", "result": 2, "unit": "µg/mL"}, {"measurement": "MIC Escherichia coli (ATCC 25922)", "setting": "[2]; strain ATCC 25922", "result": 32, "unit": "µg/mL"}, {"measurement": "MIC Escherichia coli (GC 4559)", "setting": "[2]; strain GC 4559", "result": 64, "unit": "µg/mL"}, {"measurement": "MIC Escherichia coli (GC 4560)", "setting": "[2]; strain GC 4560", "result": 1, "unit": "µg/mL"}, {"measurement": "MIC Coagulase Negative Staphylococcus (GC 4547)", "setting": "[3]", "result": 1, "unit": "µg/mL"}, {"measurement": "MIC Coagulase Negative Staphylococcus (GC 4548)", "setting": "[3]", "result": 0.5, "unit": "µg/mL"}, {"measurement": "MIC Coagulase Negative Staphylococcus (GC 4549)", "setting": "[3]", "result": 1, "unit": "µg/mL"}, {"measurement": "MIC Coagulase Negative Staphylococcus (GC 4551)", "setting": "[3]", "result": 1, "unit": "µg/mL"}, {"measurement": "MIC Coagulase Negative Staphylococcus (GC 6257)", "setting": "[3]", "result": 0.5, "unit": "µg/mL"}, {"measurement": "MIC Staphylococcus aureus (ATCC 29213)", "setting": "[3]", "result": 1, "unit": "µg/mL"}, {"measurement": "MIC Staphylococcus aureus (GC 1131)", "setting": "[3]", "result": 1, "unit": "µg/mL"}, {"measurement": "MIC Staphylococcus aureus (GC 3051)", "setting": "[3]", "result": 1, "unit": "µg/mL"}, {"measurement": "MIC Staphylococcus aureus (GC 3053)", "setting": "[3]", "result": 1, "unit": "µg/mL"}, {"measurement": "MIC Staphylococcus aureus (GC 4541)", "setting": "[3]", "result": 1, "unit": "µg/mL"}, {"measurement": "MIC Staphylococcus aureus (GC 4542)", "setting": "[3]", "result": 0.5, "unit": "µg/mL"}, {"measurement": "MIC Staphylococcus aureus (GC 4544)", "setting": "[3]", "result": 1, "unit": "µg/mL"}, {"measurement": "MIC Staphylococcus aureus (GC 4545)", "setting": "[3]", "result": 0.5, "unit": "µg/mL"}, {"measurement": "MIC Staphylococcus aureus-SMITH (GC 4543)", "setting": "[3]", "result": 1, "unit": "µg/mL"}, {"measurement": "MIC Staphylococcus haemolyticus (GC 4546)", "setting": "[3]", "result": 0.5, "unit": "µg/mL"}, {"measurement": "MIC Staphylococcus aureus (GC 1131)", "setting": "[3]; inoculum 5×10^5 CFU/mL, strain GC 1131", "result": 1, "unit": "µg/mL"}, {"measurement": "MIC Staphylococcus aureus (ATCC 29213)", "setting": "[3]; strain ATCC 29213", "result": 1, "unit": "µg/mL"}, {"measurement": "MIC Staphylococcus aureus (GC 3051)", "setting": "[3]; strain GC 3051", "result": 1, "unit": "µg/mL"}, {"measurement": "MIC Staphylococcus aureus (GC 3053)", "setting": "[3]; strain GC 3053", "result": 1, "unit": "µg/mL"}, {"measurement": "MIC Staphylococcus aureus (GC 4541)", "setting": "[3]; strain GC 4541", "result": 1, "unit": "µg/mL"}, {"measurement": "MIC Staphylococcus aureus (GC 4542)", "setting": "[3]; strain GC 4542", "result": 0.5, "unit": "µg/mL"}, {"measurement": "MIC Staphylococcus aureus (GC 4544)", "setting": "[3]; strain GC 4544", "result": 1, "unit": "µg/mL"}, {"measurement": "MIC Staphylococcus aureus (GC 4545)", "setting": "[3]; strain GC 4545", "result": 0.5, "unit": "µg/mL"}, {"measurement": "MIC Staphylococcus haemolyticus (GC 4546)", "setting": "[3]; strain GC 4546", "result": 0.5, "unit": "µg/mL"}, {"measurement": "MIC Coagulase Negative Staphylococcus (GC 4547)", "setting": "[3]; strain GC 4547", "result": 1, "unit": "µg/mL"}, {"measurement": "MIC Coagulase Negative Staphylococcus (GC 4548)", "setting": "[3]; strain GC 4548", "result": 0.5, "unit": "µg/mL"}, {"measurement": "MIC Coagulase Negative Staphylococcus (GC 4549)", "setting": "[3]; strain GC 4549", "result": 1, "unit": "µg/mL"}, {"measurement": "MIC Coagulase Negative Staphylococcus (GC 4551)", "setting": "[3]; strain GC 4551", "result": 1, "unit": "µg/mL"}, {"measurement": "MIC Coagulase Negative Staphylococcus (GC 6257)", "setting": "[3]; strain GC 6257", "result": 0.5, "unit": "µg/mL"}, {"measurement": "MIC Staphylococcus aureus-SMITH (GC 4543)", "setting": "[3]; strain SMITH GC 4543", "result": 1, "unit": "µg/mL"}, {"measurement": "MIC Streptococcus agalactiae (GC 4564)", "setting": "[4]; Streptococcus agalactiae (GC 4564)", "result": 0.25, "unit": "µg/mL"}, {"measurement": "MIC Streptococcus pneumoniae (ATCC 6301)", "setting": "[4]; Streptococcus pneumoniae (ATCC 6301)", "result": "<0.06", "unit": "µg/mL"}, {"measurement": "MIC Streptococcus pneumoniae (GC 1894)", "setting": "[4]; Streptococcus pneumoniae (GC 1894)", "result": "<0.06", "unit": "µg/mL"}, {"measurement": "MIC Streptococcus pneumoniae (GC 4565)", "setting": "[4]; Streptococcus pneumoniae (GC 4565)", "result": 0.12, "unit": "µg/mL"}, {"measurement": "MIC Streptococcus pyogenes (GC 4563)", "setting": "[4]; Streptococcus pyogenes (GC 4563)", "result": 0.25, "unit": "µg/mL"}, {"measurement": "MIC Streptococcus pneumoniae (ATCC 6301)", "setting": "[4]; strain ATCC 6301", "result": "<0.06", "unit": "µg/mL"}, {"measurement": "MIC Streptococcus pneumoniae (GC 1894)", "setting": "[4]; strain GC 1894", "result": "<0.06", "unit": "µg/mL"}, {"measurement": "MIC Streptococcus pyogenes (GC 4563)", "setting": "[4]; strain GC 4563", "result": 0.25, "unit": "µg/mL"}, {"measurement": "MIC Streptococcus agalactiae (GC 4564)", "setting": "[4]; strain GC 4564", "result": 0.25, "unit": "µg/mL"}, {"measurement": "MIC Streptococcus pneumoniae (GC 4565)", "setting": "[4]; strain GC 4565", "result": 0.12, "unit": "µg/mL"}, {"measurement": "median effective dose (ED50), Enterococcus faecalis (GC 6189)", "setting": "[5]", "result": 0.36, "unit": "mg/kg"}, {"measurement": "median effective dose (ED50), Staphylococcus aureus-SMITH (GC 4543)", "setting": "[6]", "result": 0.23, "unit": "mg/kg"}]}]}
